Reference: US4179433A, “Angiotensin II antagonist peptides containing an alpha-aminooxyacid in the position-1” (Richter Gedeon Vegyeszeti Gyar Rt., priority 1977, dated 1979)

System: narcoticized male cats
Assay: Decrease in arterial blood pressure after intravenous administration, under i.v. infusion of angiotensin II
Type: in vivo, cat
Conditions: single dose, angiotensin II infusion 0.5 μg/kg/min, average of 6 experiments
Procedure: The antagonistic activity of the compounds having the formula I was tested on narcoticized male cats. The blood pressure was measured on the cervical artery. The tests were performed by introducing a Hypertension (CIBA) infusion into a lateral femoral vane at a speed of 0.5 μg/kg/min. When the increase in blood pressure was stabilized, the aqueous, physiological or carrier-containing solutions of the test compounds and Saralasin were administered in a single dose, intravenously or subcutaneously, and the decrease in blood pressure was measured. In the Table I the decrease in the arterial blood pressure under the influence of an intravenous administration of the test compounds is illustrated. For comparison Saralasin is used. The data set forth in the Table 1 were obtained by calculating the average of the results of 6 experiments. The margins of error indicate the scatter of the main value.

CNCC(=O)N[C@@H](CCCN=C(N)N)C(=O)N[C@H](C(=O)N[C@@H](Cc1ccc(O)cc1)C(=O)N[C@H](C(=O)N[C@@H](Cc1cnc[nH]1)C(=O)N1CCC[C@H]1C(=O)N[C@@H](C)C(=O)O)C(C)C)C(C)C [Saralasin]
Decrease in blood pressure (mmHg) after administration of 10 μg/kg i.v. doses: -41±2.5 mmHg
